From patent publication EP0174833A2, “Triazoloquinoline derivatives” (MAY & BAKER LIMITED, priority 1984, dated 1986)

Tests used:
lipoxygenase = lipoxygenase inhibition in vitro; type: biochemical; details: concentration 0.0001M, 100 µM
mouse macrophage cells = test: reduction of the inhibition of migration of incubated macrophage cells after oral dosing (similar to Likhite et al.); type: in vivo; details: mice, twice administered orally, one hour before and four hours after antigen, dose each time that would reduce by 50% the inhibition of macrophage migration
Protocol: For example, from tests in mice it was calculated that compounds of formula I, when twice administered orally, one hour before and four hours after the administration of antigen, each time at the doses shown in the following Table I, would reduce by 50% the inhibition of migration of incubated mouse macrophage cells measured in a manner similar to that described by Likhite et al., Cellular Immunology, Vol. 5, 1972, page 377. This is a measure of antagonism or reduction of the levels of lymphokines and is indicative of utility in the treatment of arthritic patients.

% inhibition of lipoxygenase (lipoxygenase) [%] | SMILES | ED50 (mouse macrophage cells) [mg/kg]
100 | CCOC(=O)C(=CNc1ccc2c(c1)c(C)cc1nnc(-c3ccccc3)n12)C(=O)OCC [A, 7-[2,2-bis(ethoxycarbonyl)ethen-l-ylamino]-5-methyl-1-phenyl-1,2,4-triazolo[4,3-a]quinoline] | 7
100 | CCOC(=O)C(=CNc1ccc2c(c1)c(C)cc1nnc(-c3ccc(C)cc3)n12)C(=O)OCC [B, 7-[2,2-bis(ethoxycarbonyl)ethen-l-ylamino]-5-methyl-l-(4-methylphenyl)-1,2,4-triazolo-[4,3-a]quinoline] | –
– | CCOC(=O)C(=CNc1ccc2c(c1)c(C)cc1nnc(-c3ccc(OC)cc3)n12)C(=O)OCC [C, 7-[2,2-bis(ethoxycarbonyl)ethen-l-ylamino]-1-(4-methoxyphenyl)-5-methyl-1,2,4-triazolo-[4,3-a]quinoline] | < 10
98 | CCOC(=O)C(=CNc1ccc2c(c1)c(C)cc1nnc(-c3ccc(C(C)(C)C)cc3)n12)C(=O)OCC [D, 1-(4-tert-butylphenyl)-7-[2,2-bis(ethoxycarbonyl)ethen-1-ylamino)-5-methyl-1,2,4-triazolo[4,3-a]quinoline] | –
50 | CCOC(=O)C(=CNc1ccc(-c2nnc3cc(C)c4ccccc4n23)cc1)C(=O)OCC [E, 1-[4-{2,2-bis(ethoxycarbonyl)ethen-1-yl-amino}phenyl]-5-methyl-1,2,4-triazolo[4,3-a]-quinoline] | –
